Data on three molecules can be found in patent publication US20260138976A1 (Hoffmann-La Roche Inc., priority 2022, published 2026).

SMILES strings stand for the structures.

The IC50 is the concentration that inhibits the measured activity by half.

One assay deals with T1, DGK ζ kinase (Homo sapiens, UniProt Q13574).
T1 construct: purchased Reaction Biology Corp. (contract assay service)
The experiment in a line: DGKzeta kinase ADP Glo assay run by Reaction Biology Corp. The following applies: 2 nM kinase, 50 µM ATP, 500 μM DLG, 10-dose duplicate. The assay is classed as biochemical. The protocol:
(§1) DGK α and ζ kinases use ATP to phosphorylate the substrate 1,2-dilauroyl-sn-glycerol (DLG). ATP is converted to ADP as a result of this enzymatic reaction.
(§2) After the kinase reaction, an ATP-depletion reagent is added to terminate the kinase reaction and deplete any remaining ATP, leaving only ADP. Second, a detection reagent is added to simultaneously convert ADP to ATP and allow the newly synthesized ATP to be converted to light using a coupled luciferase/luciferin reaction.
(§3) DGK α and ζ kinase ADP Glo assays were ran by Reaction Biology Corp., 1 Great Valley Parkway, Suite 2, Malvern, 19355, PA, USA. Information provided by the service provider are the following: DGK α and ζ kinases were used at 2 nM final concentration. Reactions were carried out at 50 µM ATP. 500 μM of the substrate DLG (Dilauroyl-sn-glycerol) was used.
On the technique in general: In ADP-Glo the light output rises with the ADP produced.

A further assay deals with T2, DGK α kinase (Homo sapiens, UniProt P23743).
T2 construct: purchased Reaction Biology Corp. (contract assay service)
In words: DGKalpha kinase ADP Glo assay run by Reaction Biology Corp. It is filed as biochemical. The following applies: 2 nM kinase, 50 µM ATP, 500 μM DLG, 10-dose duplicate. The protocol:
as §1, §2, §3

Another assay relates to primary human T-cells. The experiment in a line: Proliferation assay (5 days, CellTiter-Glo, CD3-stimulated T-cells). The assay is classed as cell-based. The following applies: for Emax proliferation (% activation): CD3 condition, normalised to DMSO (neutral) and 20 μM reference compound A1 = 100%; for EC50: Homo sapiens, T-cell, 120 h, CD3-stimulated primary human T-cells, 5 days, CellTiter-Glo, fitted sigmoidal curve, read-out: Tcell Proliferation CD3 EC50. In short, it runs like this:
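Proliferation read-out: ATP luminescence (CellTiter-Glo 2.0) at day 5 in expanded primary human T-cells on CD3 antibody-coated plates, with PBS-only plates as a counter screen. Compounds in 5–6 pt series (factor 3.333, top 20 or 10 μM final). Values are normalized to DMSO (neutral) and 20 μM reference A1 (100%), from sigmoidal fits.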

Assay [1] has as its target T3, DGKα (hDGKalpha(1-735)-N-His) (Homo sapiens, UniProt P23743).
T3 construct: hDGKalpha(1-735)-N-His; His (N); made in house; host or cells: Sf21 insect cells (baculovirus)
The experiment in a line: In vitro DGK inhibition assay, DGKalpha ADP Glo (in house). Conditions: 4 nM DGKα, 25 μM ATP, 125 uM DLG in liposomes, 1 hour reaction. It is filed as biochemical. The protocol:
(§4) DGKα and ζ kinases use ATP to phosphorylate the substrate 1,2-dilauroyl-sn-glycerol (DLG, incorporated in the liposomes). ATP is converted to ADP as a result of this enzymatic reaction. After the kinase reaction, an ATP-depletion reagent is added to terminate the kinase reaction and deplete any remaining ATP, leaving only ADP. Second, a detection reagent is added to simultaneously convert ADP to ATP and allow the newly synthesized ATP to be converted to light using a coupled luciferase/luciferin reaction.
(§5) Full length DGKα and ζ were expressed in Sf21 insect cells by infecting the cells with the baculovirus stock at MOI of 2. Purification of both enzymes was performed as previously described by Takahashi et al., PeerJ, 2018 (Takahashi, D.; Sakane, F. Expression and purification of human diacylglycerol 5 kinase alpha from baculovirus-infected insect cells for structural studies. PeerJ2018, 6, No. e5449).
(§6) A concentrated liposome solution was prepared in assay buffer without DTT and BSA: 2 mM of DLG in 21 mM of total liposome (2 mM DLG/8 mM PS/11 mM PC). The reaction mixtures contain the assay buffer with a final DLG concentration of 125 uM ATP concentrations of 25 μM (for DGKA assay) or 50 μM (for DGKZ assay). The reactions were started by addition of DGK α and ζ kinases at 4 nM and 2 nM final concentrations, respectively. After 1 hour reaction, the amount of ADP formed was detected with the ADP-Glo kinase assay (Promega) according to the manufacturer instructions. Compounds were added in 11-points dose response, starting at […], 1:3 dilutions, with a final DMSO concentration of 2%. The multidrop combi was used as a liquid handler and luminescence was read with 0.5 s by the envision reader (PE).

Assay [2] has as its target T4, DGKζ (hDGKzeta(1-928)-N-His) (Homo sapiens, UniProt Q13574).
T4 construct: hDGKzeta(1-928)-N-His; His (N); made in house; host or cells: Sf21 insect cells (baculovirus)
The experiment in a line: In vitro DGK inhibition assay, DGKzeta ADP Glo (in house). Conditions: 2 nM DGKζ, 50 μM ATP, 125 uM DLG in liposomes, 1 hour reaction. It is filed as biochemical. The method, then:
as §4, §5, §6

T4 sequence (Q13574 whole entry): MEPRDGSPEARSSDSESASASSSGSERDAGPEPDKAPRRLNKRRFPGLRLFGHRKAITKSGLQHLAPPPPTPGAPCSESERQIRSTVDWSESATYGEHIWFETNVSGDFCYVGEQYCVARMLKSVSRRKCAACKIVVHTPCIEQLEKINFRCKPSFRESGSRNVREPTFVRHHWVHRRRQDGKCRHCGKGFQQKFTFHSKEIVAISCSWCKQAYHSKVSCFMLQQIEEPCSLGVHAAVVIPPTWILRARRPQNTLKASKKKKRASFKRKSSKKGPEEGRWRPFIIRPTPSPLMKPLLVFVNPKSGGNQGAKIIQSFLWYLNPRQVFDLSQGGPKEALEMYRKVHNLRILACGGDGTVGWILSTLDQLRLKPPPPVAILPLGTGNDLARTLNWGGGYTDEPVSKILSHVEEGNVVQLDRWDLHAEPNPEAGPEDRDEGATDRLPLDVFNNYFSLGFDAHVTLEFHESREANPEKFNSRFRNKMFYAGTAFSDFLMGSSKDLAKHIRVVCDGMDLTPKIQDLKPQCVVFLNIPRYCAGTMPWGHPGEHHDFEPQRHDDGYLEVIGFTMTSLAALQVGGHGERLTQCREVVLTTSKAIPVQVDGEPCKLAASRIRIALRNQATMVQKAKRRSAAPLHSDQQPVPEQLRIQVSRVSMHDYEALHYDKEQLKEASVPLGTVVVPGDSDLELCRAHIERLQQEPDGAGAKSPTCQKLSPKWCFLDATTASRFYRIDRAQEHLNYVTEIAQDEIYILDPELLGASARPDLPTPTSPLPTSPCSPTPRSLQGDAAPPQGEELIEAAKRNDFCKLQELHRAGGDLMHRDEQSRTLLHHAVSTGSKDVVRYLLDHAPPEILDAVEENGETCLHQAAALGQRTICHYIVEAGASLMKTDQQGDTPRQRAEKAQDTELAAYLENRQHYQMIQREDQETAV
T3 sequence (P23743 whole entry): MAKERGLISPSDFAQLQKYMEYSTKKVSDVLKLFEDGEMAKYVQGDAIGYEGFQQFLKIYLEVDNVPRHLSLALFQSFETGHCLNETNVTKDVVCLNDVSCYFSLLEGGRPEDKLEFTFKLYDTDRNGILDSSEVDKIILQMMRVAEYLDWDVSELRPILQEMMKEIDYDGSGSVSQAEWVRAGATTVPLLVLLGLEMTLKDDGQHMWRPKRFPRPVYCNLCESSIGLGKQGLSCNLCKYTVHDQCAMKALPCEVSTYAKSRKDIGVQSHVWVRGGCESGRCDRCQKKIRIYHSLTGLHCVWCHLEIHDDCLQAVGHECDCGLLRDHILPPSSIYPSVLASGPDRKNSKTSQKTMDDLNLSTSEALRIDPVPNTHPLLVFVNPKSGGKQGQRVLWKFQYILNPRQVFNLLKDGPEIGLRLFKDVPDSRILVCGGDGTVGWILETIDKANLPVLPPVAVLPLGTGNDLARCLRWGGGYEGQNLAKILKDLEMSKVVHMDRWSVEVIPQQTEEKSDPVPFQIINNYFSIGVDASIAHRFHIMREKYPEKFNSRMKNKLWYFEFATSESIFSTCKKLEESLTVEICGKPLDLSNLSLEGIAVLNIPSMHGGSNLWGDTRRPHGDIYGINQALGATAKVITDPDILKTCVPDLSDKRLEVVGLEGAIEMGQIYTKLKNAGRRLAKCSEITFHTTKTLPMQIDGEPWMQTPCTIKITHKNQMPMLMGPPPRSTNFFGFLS
T1 sequence (Q13574 whole entry): as the sequence (Q13574 whole entry) above
T2 sequence (P23743 whole entry): as the sequence (P23743 whole entry) above

Turning to `CN1CCCC(F)(c2nnc(-c3ccc4c(c3)N(Cc3ccc(-c5noc(C(F)(F)F)n5)cc3)C(=O)[C@@H](N)CS4(=O)=O)o2)C1` (stereo partly drawn) [Example 49, (3R)-3-amino-7-[5-(3-fluoro-1-methyl-3-piperidyl)-1,3,4-oxadiazol-2-yl]-1,1-dioxo-5-[[4-[5-(trifluoromethyl)-1,2,4-oxadiazol-3-yl]phenyl]methyl]-2,3-dihydro-1λ^6,5-benzothiazepin-4-one], the IC50 stood at 365 nM against DGK ζ kinase, 227 nM against DGK α kinase, 17800 nM in assay [1] and 3100 nM in assay [2]. In addition, the “Emax proliferation (% activation)” value with primary human T-cells came to 86 % activation. In addition, the EC50 in the assay on primary human T-cells amounted to 122 nM.

For the molecule `CCC(C#N)(CC)c1nnc(-c2ccc3c(c2)N(Cc2ccc(-c4ccc(OC(F)(F)F)cn4)cc2)C(=O)[C@@H](N)CS3(=O)=O)o1` [Example 176, 2-[5-[(3R)-3-amino-1,1,4-trioxo-5-[[4-[5-(trifluoromethoxy)-2-pyridyl]phenyl]methyl]-2,3-dihydro-1λ^6,5-benzothiazepin-7-yl]-1,3,4-oxadiazol-2-yl]-2-ethyl-butanenitrile], in the assay with primary human T-cells, the “Emax proliferation (% activation)” value is recorded as 140 % activation and the EC50 was found to be 85.7 nM. In addition, the IC50 in assay [1] is 1530 nM. In assay [2], this molecule came in with an IC50 of 1550 nM.

As for `N[C@H]1CS(=O)(=O)c2ccc(-c3nnc(C4(N)CCC(F)(F)CC4)o3)cc2N(Cc2ccc(-c3ccc(OC(F)(F)F)cn3)cc2)C1=O` [Example 178, (3R)-3-amino-7-[5-(1-amino-4,4-difluoro-cyclohexyl)-1,3,4-oxadiazol-2-yl]-1,1-dioxo-5-[[4-[5-(trifluoromethoxy)-2-pyridyl]phenyl]methyl]-2,3-dihydro-1λ^6,5-benzothiazepin-4-one], in the assay with primary human T-cells, the “Emax proliferation (% activation)” value was 96 % activation. In the assay with primary human T-cells, the EC50 amounted to 133 nM. For the same molecule, the values for the IC50 in assay [1] and in assay [2] were 7100 nM and 1690 nM, respectively.
